According to the CheMixHub viscosity set:

Test: xn = mol fraction of the nth substance listed

BrC(Br)Br + C=Cc1ccccc1
viscosity [mPa·s], 101.33 kPa
Conditions | x2 = 0.1005 | x2 = 0.2006 | x2 = 0.2981 | x2 = 0.3985 | x2 = 0.506 | x2 = 0.6032 | x2 = 0.7008 | x2 = 0.7712 | x2 = 0.8948
298.15 K | 1.834 | 1.697 | 1.562 | 1.426 | 1.284 | 1.163 | 1.054 | 0.9849 | 0.8704
303.15 K | 1.714 | 1.586 | 1.462 | 1.332 | 1.198 | 1.084 | 0.9817 | 0.9179 | 0.8129
308.15 K | 1.603 | 1.481 | 1.361 | 1.24 | 1.117 | 1.01 | 0.9176 | 0.8595 | 0.762

CCCCCCCCO + CC1COC(=O)O1
298.15 K, 101 kPa
Conditions | viscosity [mPa·s]
x2 = 0.0305 | 5.992
x2 = 0.0991 | 5.607
x2 = 0.1708 | 5.253
x2 = 0.2441 | 4.915
x2 = 0.3107 | 4.627
x2 = 0.4055 | 4.245
x2 = 0.4882 | 3.938
x2 = 0.5632 | 3.679
x2 = 0.6277 | 3.469
x2 = 0.7091 | 3.222
x2 = 0.7824 | 3.015
x2 = 0.8415 | 2.857
x2 = 0.9046 | 2.698
x2 = 0.971 | 2.54

CC(=O)c1ccc(Cl)cc1 + CC#N
308.15 K, 101 kPa
Conditions | viscosity [mPa·s]
x1 = 0.0513 | 0.3576
x1 = 0.092 | 0.4065
x1 = 0.1488 | 0.479
x1 = 0.2128 | 0.5704
x1 = 0.2863 | 0.6742
x1 = 0.3792 | 0.8301
x1 = 0.4876 | 1.039
x1 = 0.6196 | 1.31
x1 = 0.7847 | 1.716
x1 = 0.865 | 1.96
x1 = 0.9536 | 2.224

CCCCCCCCO + CC#N
viscosity [mPa·s], 101 kPa
Conditions | 298.15 K | 303.15 K | 308.15 K
x2 = 0.1277 | 5.028 | 4.029 | 3.493
x2 = 0.2608 | 3.533 | 3.09 | 2.688
x2 = 0.3381 | 2.848 | 2.53 | 2.203
x2 = 0.4447 | 2.086 | 1.862 | 1.638
x2 = 0.5793 | 1.427 | 1.282 | 1.151
x2 = 0.68 | 1.028 | 0.927 | 0.84
x2 = 0.7638 | 0.77 | 0.701 | 0.647
x2 = 0.8283 | 0.695 | 0.562 | 0.523
x2 = 0.8825 | 0.502 | 0.472 | 0.446
x2 = 0.9273 | 0.435 | 0.414 | 0.391
x2 = 0.967 | 0.39 | 0.364 | 0.346

C=Cc1ccccc1 + CC(=O)N(C)C
viscosity [mPa·s], 101.33 kPa
Conditions | x1 = 0.109 | x1 = 0.1994 | x1 = 0.2958 | x1 = 0.4002 | x1 = 0.5004 | x1 = 0.6012 | x1 = 0.7027 | x1 = 0.8005 | x1 = 0.9015
298.15 K | 0.938 | 0.936 | 0.937 | 0.929 | 0.921 | 0.903 | 0.881 | 0.851 | 0.808
303.15 K | 0.874 | 0.873 | 0.872 | 0.863 | 0.857 | 0.841 | 0.821 | 0.795 | 0.753
308.15 K | 0.817 | 0.818 | 0.815 | 0.807 | 0.8 | 0.785 | 0.766 | 0.742 | 0.7

CC(C)(C)N + CC(=O)OCCC(C)C
303.15 K, 101 kPa
Conditions | viscosity [mPa·s]
x1 = 0.1524 | 0.6892
x1 = 0.239 | 0.6687
x1 = 0.3353 | 0.6526
x1 = 0.4584 | 0.6341
x1 = 0.5807 | 0.5993
x1 = 0.6423 | 0.5804
x1 = 0.7298 | 0.5464
x1 = 0.8649 | 0.4955

BrC(Br)Br + CC(C)=O
298.15 K, 101 kPa
Conditions | viscosity [mPa·s]
x1 = 0.0969 | 0.407
x1 = 0.2014 | 0.529
x1 = 0.332 | 0.696
x1 = 0.428 | 0.847
x1 = 0.4952 | 0.954
x1 = 0.5974 | 1.131
x1 = 0.6766 | 1.268
x1 = 0.7997 | 1.503
x1 = 0.9166 | 1.73

BrC(Br)Br + CC(C)CCO
viscosity [mPa·s], 101.33 kPa
Conditions | x1 = 0.099 | x1 = 0.203 | x1 = 0.299 | x1 = 0.422 | x1 = 0.498 | x1 = 0.599 | x1 = 0.702 | x1 = 0.803 | x1 = 0.9
298.15 K | 3.419 | 3.063 | 2.77 | 2.415 | 2.265 | 2.111 | 1.957 | 1.888 | 1.873
303.15 K | 2.937 | 2.643 | 2.384 | 2.145 | 2.025 | 1.909 | 1.795 | 1.739 | 1.737
308.15 K | 2.527 | 2.306 | 2.111 | 1.905 | 1.815 | 1.729 | 1.647 | 1.61 | 1.605

BrC(Br)Br + CC(C)CO
viscosity [mPa·s], 101.3 kPa
Conditions | x1 = 0.099 | x1 = 0.197 | x1 = 0.3 | x1 = 0.395 | x1 = 0.498 | x1 = 0.597 | x1 = 0.701 | x1 = 0.798 | x1 = 0.901
298.15 K | 2.98 | 2.604 | 2.336 | 2.134 | 2.017 | 1.905 | 1.849 | 1.815 | 1.823
303.15 K | 2.544 | 2.272 | 2.045 | 1.901 | 1.808 | 1.732 | 1.693 | 1.679 | 1.699
308.15 K | 2.193 | 2.011 | 1.803 | 1.687 | 1.633 | 1.579 | 1.559 | 1.558 | 1.591

BrC(Br)Br + CCC(C)=O
viscosity [mPa·s]
Conditions | x1 = 0.1474 | x1 = 0.1586 | x1 = 0.3005 | x1 = 0.3052 | x1 = 0.5009 | x1 = 0.5019 | x1 = 0.6499 | x1 = 0.6501 | x1 = 0.8432 | x1 = 0.8502
298 K, 101.3 kPa | – | 0.583 | – | 0.768 | 1.072 | – | – | 1.318 | 1.626 | –
318 K, 101.33 kPa | 0.4678 | – | 0.6228 | – | – | 0.8523 | 1.038 | – | – | 1.298

CCCCCCCCO + CCC(C)=O
viscosity [mPa·s], 100 kPa
Conditions | x2 = 0.0822 | x2 = 0.1611 | x2 = 0.2403 | x2 = 0.3498 | x2 = 0.4409 | x2 = 0.5588 | x2 = 0.6462 | x2 = 0.7398 | x2 = 0.8503 | x2 = 0.9398
293.15 K | 7.1 | 5.43 | 4.3 | 3.18 | 2.46 | 1.7 | 1.26 | 0.96 | 0.68 | 0.49
303.15 K | 4.93 | 3.97 | 3.09 | 2.32 | 1.7 | 1.03 | 0.75 | 0.62 | 0.49 | 0.42
313.15 K | 3.59 | 2.87 | 2.28 | 1.69 | 1.32 | 0.98 | 0.78 | 0.62 | 0.49 | 0.39
323.15 K | 2.74 | 2.22 | 1.82 | 1.38 | 1.1 | 0.83 | 0.67 | 0.54 | 0.43 | 0.35
